# Experimental data taken from ChEMBL document CHEMBL4020846 (J Med Chem, 2018).
# pEC50: −log10 of the molar value. Active and inactive are the calls of the source. The calls are words filed in the database; no cut-off is given here.
# How the values were obtained:
# [1] = test system: PBMC; assay: Immunostimulatory activity in human PBMC assessed as increase in TNF-alpha release at 2 uM after 18 hrs in presence of LPS by flow cytometry relative to control; format: functional
# [2] = test system: PBMC; assay: Immunostimulatory activity in human PBMC assessed as increase in IL-2 release at 2 uM after 18 hrs in presence of LPS by flow cytometry; format: functional, cell-based
# [3] = test system: Mus musculus; assay: Immunoadjuvant activity in ovalbumin-induced NIH/OlaHsd mouse model of adjuvancy assessed as induction of ovalbumin-specific humoral immune response by measuring increase in anti-OVA IgG level in serum at 200 ug, sc using liposome encapsulated compound measured on day 7 post second booster by ELISA; format: functional, organism-based
# [4] = Drug metabolism in HEK293 cells assessed as retention time at 2 uM by LC-MS analysis; format: ADME, cell-based; conditions: human, hek293, 2 µM
# [5] = Drug uptake in HEK293 cells cytosol at 2 uM after 18 hrs by LC-MS analysis; format: ADME, cell-based; conditions: human
# [6] = test system: PBMC; assay: Immunostimulatory activity in human PBMC assessed as increase in TNF-alpha release at 2 uM after 18 hrs by flow cytometry; format: functional, cell-based
# [7] = test system: PBMC; assay: Immunostimulatory activity in human PBMC assessed as increase in IL-6 release at 2 uM after 18 hrs in presence of LPS by flow cytometry relative to control; format: functional
# [8] = Drug level in HEK293 cells cytosol at 2 uM after 18 hrs by LC-MS analysis; format: ADME, cell-based; conditions: human
# [9] = test system: PBMC; assay: Immunostimulatory activity in human PBMC assessed as increase in IL-10 release at 2 uM after 18 hrs by flow cytometry; format: functional, cell-based
# [10] = test system: PBMC; assay: Immunostimulatory activity in human PBMC assessed as increase in IL-6 release at 2 uM after 18 hrs by flow cytometry; format: functional, cell-based
# [11] = test system: PBMC; assay: Immunostimulatory activity in human PBMC assessed as increase in IL-17A release at 2 uM after 18 hrs in presence of LPS by flow cytometry; format: functional, cell-based
# [12] = test system: PBMC; assay: Immunostimulatory activity in human PBMC assessed as increase in IL-4 release at 2 uM after 18 hrs in presence of LPS by flow cytometry; format: functional, cell-based
# [13] = target: T1, Nucleotide-binding oligomerization domain-containing protein 1 (Homo sapiens) (UniProt Q9Y239); assay: Agonist activity at human NOD1 expressed in HEK-Blue cells assessed as induction of NF-kB transcriptional activity at 20 uM after 18 hrs by SEAP reporter gene assay; format: cell-based
# T1 sequence (whole entry): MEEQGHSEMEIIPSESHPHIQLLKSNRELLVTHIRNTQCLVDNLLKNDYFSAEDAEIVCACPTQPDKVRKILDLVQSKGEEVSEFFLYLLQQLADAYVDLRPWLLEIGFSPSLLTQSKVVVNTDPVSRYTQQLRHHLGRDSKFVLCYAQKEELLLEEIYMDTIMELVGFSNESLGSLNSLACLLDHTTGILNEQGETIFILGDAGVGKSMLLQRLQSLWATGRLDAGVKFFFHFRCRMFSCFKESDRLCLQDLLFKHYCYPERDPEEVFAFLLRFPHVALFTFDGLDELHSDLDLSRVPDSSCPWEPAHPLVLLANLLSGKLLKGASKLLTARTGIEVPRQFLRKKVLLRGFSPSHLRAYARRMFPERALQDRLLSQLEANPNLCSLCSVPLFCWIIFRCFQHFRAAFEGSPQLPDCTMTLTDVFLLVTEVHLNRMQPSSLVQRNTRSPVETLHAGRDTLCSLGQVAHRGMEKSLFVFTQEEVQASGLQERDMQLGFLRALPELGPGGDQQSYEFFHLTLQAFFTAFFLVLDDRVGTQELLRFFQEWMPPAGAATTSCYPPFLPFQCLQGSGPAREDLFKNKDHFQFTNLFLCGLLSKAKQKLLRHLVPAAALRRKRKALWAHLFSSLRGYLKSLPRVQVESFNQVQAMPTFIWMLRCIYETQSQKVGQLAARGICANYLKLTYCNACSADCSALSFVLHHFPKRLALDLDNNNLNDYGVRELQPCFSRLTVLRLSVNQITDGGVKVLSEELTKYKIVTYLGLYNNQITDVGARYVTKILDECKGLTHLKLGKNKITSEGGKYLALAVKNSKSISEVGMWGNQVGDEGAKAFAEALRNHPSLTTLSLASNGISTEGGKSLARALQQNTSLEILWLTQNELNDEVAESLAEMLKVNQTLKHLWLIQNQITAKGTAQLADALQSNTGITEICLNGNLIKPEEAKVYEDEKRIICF
# [14] = Cytotoxicity against HEK-Blue cells over-expressing NOD2 assessed as residual metabolic activity at 20 uM after 18 hrs by CellTiter 96 aqueous one solution cell proliferation assay relative to control; format: ADME, cell-based; conditions: human, read-out: Activity
# [15] = Stability in HEK293 cells at 2 uM up to 18 hrs by LC-MS analysis; format: ADME, cell-based; conditions: human, hek293, 18 h
# [16] = test system: PBMC; assay: Immunostimulatory activity in human PBMC assessed as increase in IFNgamma release at 2 uM after 18 hrs in presence of LPS by flow cytometry; format: functional, cell-based
# [17] = Pyrogenic activity in Atlantic horseshoe crab blood limulus amebocyte lysate by bacterial endotoxin test; format: ADME; conditions: limulus polyphemus
# [18] = test system: PBMC; assay: Immunostimulatory activity in human PBMC assessed as increase in IL-10 release at 2 uM after 18 hrs in presence of LPS by flow cytometry relative to control; format: functional
# [19] = target: T2, Nucleotide-binding oligomerization domain-containing protein 2 (Homo sapiens, UniProt Q9HC29); assay: Agonist activity at human NOD2 expressed in HEK-Blue cells assessed as induction of NF-kB transcriptional activity at 2 uM after 18 hrs by SEAP reporter gene assay relative to control; format: cell-based
# [20] = target: T2, Nucleotide-binding oligomerization domain-containing protein 2; assay: Agonist activity at human NOD2 expressed in HEK-Blue cells assessed as induction of NF-kB transcriptional activity after 18 hrs by SEAP reporter gene assay; format: cell-based
# [21] = target: T2, Nucleotide-binding oligomerization domain-containing protein 2; assay: Agonist activity at human NOD2 expressed in HEK-Blue cells assessed as induction of NF-kB transcriptional activity at 2 uM after 18 hrs in presence of NOD2 antagonist GSK-669 by SEAP reporter gene assay; format: cell-based
# [22] = test system: Mus musculus; assay: Immunoadjuvant activity in ovalbumin-induced NIH/OlaHsd mouse model of adjuvancy assessed as modulation of Th1/Th2-bias of induced immune response by measuring ratio of anti-OVA IgG1 to anti-OVA IgG2a level in serum at 200 ug, sc using liposome encapsulated compound measured on day 7 post second booster by ELISA (reference value: 1.69 +/- 0.28); format: functional
# [23] = target: T2, Nucleotide-binding oligomerization domain-containing protein 2; assay: Agonist activity at human NOD2 expressed in HEK-Blue cells assessed as induction of NF-kB transcriptional activity at 20 uM after 18 hrs by SEAP reporter gene assay; format: cell-based
# T2 sequence (Q9HC29 whole entry, the tested form may be a part): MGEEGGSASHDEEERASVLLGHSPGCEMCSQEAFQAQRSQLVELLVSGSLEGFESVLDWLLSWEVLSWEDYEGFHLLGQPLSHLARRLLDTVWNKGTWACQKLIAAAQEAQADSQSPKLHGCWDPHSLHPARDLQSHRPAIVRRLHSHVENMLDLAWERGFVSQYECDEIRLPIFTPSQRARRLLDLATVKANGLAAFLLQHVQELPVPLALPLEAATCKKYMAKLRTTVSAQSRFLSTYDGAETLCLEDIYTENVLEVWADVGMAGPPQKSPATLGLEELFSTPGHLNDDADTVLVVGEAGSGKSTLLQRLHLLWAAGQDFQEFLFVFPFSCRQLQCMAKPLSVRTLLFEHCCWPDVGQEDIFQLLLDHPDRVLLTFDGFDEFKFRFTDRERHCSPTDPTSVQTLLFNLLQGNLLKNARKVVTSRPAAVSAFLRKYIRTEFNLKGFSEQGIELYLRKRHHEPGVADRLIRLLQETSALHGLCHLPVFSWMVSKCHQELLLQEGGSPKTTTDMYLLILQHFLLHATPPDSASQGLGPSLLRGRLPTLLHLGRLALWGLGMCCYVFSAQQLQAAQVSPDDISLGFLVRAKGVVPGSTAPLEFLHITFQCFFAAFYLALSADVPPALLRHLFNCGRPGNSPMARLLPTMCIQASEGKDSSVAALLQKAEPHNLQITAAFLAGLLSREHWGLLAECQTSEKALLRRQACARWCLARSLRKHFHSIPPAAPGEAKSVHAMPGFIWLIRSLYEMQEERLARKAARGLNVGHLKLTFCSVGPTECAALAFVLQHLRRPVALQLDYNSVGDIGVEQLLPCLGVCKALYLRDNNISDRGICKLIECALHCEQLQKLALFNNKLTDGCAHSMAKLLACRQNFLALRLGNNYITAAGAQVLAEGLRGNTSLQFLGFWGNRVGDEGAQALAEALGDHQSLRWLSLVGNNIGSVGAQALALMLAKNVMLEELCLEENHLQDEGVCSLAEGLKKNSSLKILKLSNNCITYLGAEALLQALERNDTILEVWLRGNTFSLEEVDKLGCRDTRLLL
SMILES,Activity [13],fold change (FC) [19],Activity [20],pEC50 [20],Activity [21],Activity [23],"viability at 18 h, 20 µM [14] [%]",other results
CCOC(=O)CC[C@@H](NC(=O)[C@@H](NC(=O)CNC(=O)/C=C/c1ccc(O)c(OC)c1)C(C)C)C(=O)OCC,inactive,–,–,–,–,–,> 80,fold change (FC) [1]: 3; Activity [2]: Active; Activity [3]: Active; Retention_time [4]: 3.53 min; Drug uptake [5]: 40%; Activity [6]: Active; fold change (FC) [7]: 4; Drug uptake [8]: 0.13 µM; Activity [9]: Active; Activity [10]: Active; Activity [11]: Active; Activity [12]: Active; Stability [15]: Stable; Activity [16]: Active; Activity [17]: Non-Toxic; fold change (FC) [18]: 5
CC(=O)N[C@H]1C(O)O[C@H](CO)[C@@H](O)[C@@H]1O[C@H](C)C(=O)N[C@@H](C)C(=O)N[C@H](CCC(=O)O)C(N)=O (stereo partly drawn) [MURAMYL DIPEPTIDE],inactive,5.6,Dose-dependent effect,7.04,inactive,–,> 80,fold change (FC) [1]: 3.6; Activity [2]: Active; Activity [3]: Active; Activity [6]: Active; fold change (FC) [7]: 4; Activity [9]: Active; Activity [10]: Active; Ratio [22]: 133; log(ratio) [22]: 2.37; Activity [11]: Active; Activity [12]: Active; Activity [16]: Active; fold change (FC) [18]: 5
CCOC(=O)CC[C@@H](NC(=O)[C@H](Cc1ccccc1)NC(=O)CNC(=O)[C@@H]1C[C@H]1c1ccccc1)C(=O)OCC,inactive,5.3,Dose-dependent effect,6.33,inactive,Active,> 80,–
CCOC(=O)CC[C@@H](NC(=O)[C@@H](NC(=O)CNC(=O)C1CC1c1ccc(F)c(F)c1)C(C)C)C(=O)OCC (stereo partly drawn),inactive,5.8,Dose-dependent effect,6.61,inactive,Active,> 80,–

# Second part, led by results:
Activity [13],fold change (FC) [19],Activity [20],pEC50 [20],Activity [21],Activity [23],SMILES,"viability at 18 h, 20 µM [14] [%]",other results
inactive,2.7,–,5.16,inactive,Active,COc1cc(/C=C/C(=O)NCC(=O)N[C@H](C(=O)N[C@H](CCC(=O)O)C(=O)O)C(C)C)ccc1O,> 80,Retention_time [4]: 2.88 min; Drug uptake [8]: 0.4 µM; Stability [15]: Stable
inactive,4.5,–,5.55,inactive,Active,CCOC(=O)CC[C@@H](NC(=O)[C@H](C)NC(=O)CNC(=O)/C=C/c1ccc(O)c(OC)c1)C(=O)OCC,> 80,–
inactive,5.4,Dose-dependent effect,6.76,inactive,Active,CCOC(=O)CC[C@@H](NC(=O)[C@H](Cc1ccccc1)NC(=O)CNC(=O)/C=C/c1ccc(F)c(F)c1)C(=O)OCC,> 80,–
